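The concentration for 50% growth inhibition is given as GI50. TGI marks complete inhibition of growth.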
Key:
Assay in all cases: DTP human tumour cell line panel, 384-well format
[1] = tested on: SR leukemia
[2] = tested on: T-47D breast
[3] = tested on: A498 renal
[4] = tested on: MDA-MB-468 breast
[5] = tested on: SF-295 CNS
[6] = tested on: DU-145 prostate
[7] = tested on: SN12C renal
[8] = tested on: SK-MEL-2 melanoma
[9] = tested on: NCI-H23 lung
[10] = tested on: CAKI-1 renal
[11] = tested on: M14 melanoma
[12] = tested on: KM12 colon
[13] = tested on: SNB-19 CNS

O=C(O)[C@H](Cc1c[nH]c2ccccc12)N1C(=O)c2ccccc2C1=O
GI50 [1]: > 100 µM | TGI [1]: > 100 µM | GI50 [2]: > 100 µM | TGI [2]: > 100 µM | GI50 [3]: > 100 µM | TGI [3]: > 100 µM | GI50 [4]: > 100 µM | TGI [4]: > 100 µM | GI50 [5]: > 100 µM | TGI [5]: > 100 µM | GI50 [6]: > 100 µM | TGI [6]: > 100 µM | GI50 [7]: > 100 µM | TGI [7]: > 100 µM | GI50 [8]: > 100 µM | TGI [8]: > 100 µM | GI50 [9]: > 100 µM | TGI [9]: > 100 µM | GI50 [10]: > 100 µM | TGI [10]: > 100 µM | GI50 [11]: > 100 µM | TGI [11]: > 100 µM | GI50 [12]: > 100 µM | TGI [12]: > 100 µM | GI50 [13]: > 100 µM | TGI [13]: > 100 µM

— PubChem BioAssay (NCI)
